Values joined by “and” are separate entries in the source; they are usually repeats but may differ in a detail not shown here. Identical values can stand only once.
System: rat dysuria model that presents DHIC
Assay: Cystometry and nomogram analysis in rat dysuria model that presents DHIC (partial ligation of urethra)
Assay type: in vivo
Protocol: The models were produced by partial ligation ((1)1.57 mm) of urethra in rats (9 weeks, female, Sprague-Dawley). Six weeks after preparation of the model, the rats were released the ligation. The next day, the intravesical pressure and the voided volume were measured under awake condition. And the detrusor contractility during voiding phase was evaluated by nomogram analysis using Qmax and Pdet. Additionally, the detrusor overactivity, as index of overactive bladder, and the increase of residual urine volume, as index of underactive bladder, were evaluated.
The dysuria models in this example were prepared in the same manner as in Test Example 1. The test drugs (vehicle: 6% Gelucire, Compound 1 of the present invention 10 mg/kg) were orally administered to each group after two weeks from the preparation of the models twice a day for four weeks. On the day of the final administration, the rats were released the ligation of urethra. The next day, the intravesical pressure and the voided volume were measured using cystometry under conscious condition. The detrusor overactivity, as an index of overactive bladder, and the increase of residual urine volume, as an index of underactive bladder, were evaluated. Additionally, the detrusor contractility during voiding phase was evaluated by nomogram analysis using Qmax and Pdet.
In the same manner as Test Example 1, the rats were released the ligation of urethra at six weeks after the preparation of the model. The next day, the intravesical pressure and the voided volume were measured using cystometry under conscious condition. The detrusor overactivity, as an index of overactive bladder, and the increase of residual urine volume, as an index of underactive bladder, were evaluated. Additionally, the detrusor contractility during voiding phase was evaluated by nomogram analysis using Qmax and Pdet. Tamsulosin (3 μg/kg) was administered intravenously to the dysuria rat at the evaluation (six weeks after preparation of the model).

CC1=C(CCCCCCCCCCCCCCCO)C(C)(C)CCC1=O [Compound 1 of the present invention, 3-(15-hydroxypentadecyl)-2,4,4-trimethyl-2-cyclohexene-1-one]
Detrusor contractility during voiding phase: distance from the origin in nomogram analysis (Qmax, Pdet) (10 mg/kg orally twice a day for four weeks, control 4.24±0.53, sham 24.75±3.14): 10.5±2.3
Residual urine volume (female Sprague-Dawley rats, 10 mg/kg orally twice a day for four weeks, conscious cystometry, control 0.57 ± 0.06, sham 0.10 ± 0.03, 10 mg/kg): 0.28 ± 0.13 mL
Detrusor overactivity (female Sprague-Dawley rats, 10 mg/kg orally twice a day for four weeks, conscious cystometry, control 1.73 ± 0.10, sham 0.19 ± 0.09, 10 mg/kg): 0.63±0.14 times/min and 0.63 ± 0.10 times/min

CCOc1ccccc1OCCN[C@H](C)Cc1ccc(OC)c(S(N)(=O)=O)c1 [Tamsulosin, reference compound]
Detrusor contractility in nomogram analysis (3 μg/kg intravenously at the evaluation, vs control (FIG. 2)): no effect
Detrusor overactivity (female Sprague-Dawley rats, 3 μg/kg intravenously at the evaluation, conscious cystometry, control 1.73 ± 0.10): 0.68±0.33 times/min
